Patent US20240252454A1, “COMPOSITION COMPRISING AN INHIBITOR OF MITOCHONDRIAL TRANSCRIPTION” (LEAD DISCOVERY CENTER GMBH, priority 2021, published 2024)

Columns and labels:
Experiment in all cases: SRB assay, IMT combined with inhibitor
Type in all cases: cell-based
[1] = system: SKMEL28; conditions: SKMEL28 (skin); concentration series of the labelled inhibitor + fixed concentration of IMT (3S)-1-[(2R)-2-[4-(2-chloro-4-fluoro-phenyl)-2-oxo-chromen-7-yl]oxypropanoyl]piperidine-3-carboxylic acid (Table 3: 40 nM, 120 h); negative=synergistic, positive=antagonistic
Outline: (§1)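 Cells are grown at near-physiological glucose (5 mM) and given a dilution series of a MAPK signalling pathway SOC plus 40 nM (3S)-1-[(2R)-2-[4-(2-chloro-4-fluoro-phenyl)-2-oxo-chromen-7-yl]oxypropanoyl]piperidine-3-carboxylic acid held constant. After 120 h, biomass is quantified with sulforhodamine B.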

[2] = system: SW620; conditions: SW620 (colon); concentration series of the labelled inhibitor + fixed concentration of IMT (3S)-1-[(2R)-2-[4-(2-chloro-4-fluoro-phenyl)-2-oxo-chromen-7-yl]oxypropanoyl]piperidine-3-carboxylic acid (Table 3: 40 nM, 120 h); negative=synergistic, positive=antagonistic
Outline: as §1

[3] = system: HT1080; conditions: HT1080 (connective tissue); concentration series of the labelled inhibitor + fixed concentration of IMT (3S)-1-[(2R)-2-[4-(2-chloro-4-fluoro-phenyl)-2-oxo-chromen-7-yl]oxypropanoyl]piperidine-3-carboxylic acid (Table 3: 40 nM, 120 h); negative=synergistic, positive=antagonistic
Outline: as §1

[4] = system: LOVO; conditions: LOVO (colon); concentration series of the labelled inhibitor + fixed concentration of IMT (3S)-1-[(2R)-2-[4-(2-chloro-4-fluoro-phenyl)-2-oxo-chromen-7-yl]oxypropanoyl]piperidine-3-carboxylic acid (Table 3: 40 nM, 120 h); negative=synergistic, positive=antagonistic
Outline: as §1

[5] = system: GRANTA-519; conditions: GRANTA-519 (hematological); concentration series of the labelled inhibitor + fixed concentration of IMT (3S)-1-[(2R)-2-[4-(2-chloro-4-fluoro-phenyl)-2-oxo-chromen-7-yl]oxypropanoyl]piperidine-3-carboxylic acid (Table 3: 40 nM, 120 h); negative=synergistic, positive=antagonistic
Outline: as §1

[6] = system: A673; conditions: A673 (muscle); concentration series of the labelled inhibitor + fixed concentration of IMT (3S)-1-[(2R)-2-[4-(2-chloro-4-fluoro-phenyl)-2-oxo-chromen-7-yl]oxypropanoyl]piperidine-3-carboxylic acid (Table 3: 40 nM, 120 h); negative=synergistic, positive=antagonistic
Outline: as §1

[7] = system: HCT116; conditions: HCT116 (colon); concentration series of the labelled inhibitor + fixed concentration of IMT (3S)-1-[(2R)-2-[4-(2-chloro-4-fluoro-phenyl)-2-oxo-chromen-7-yl]oxypropanoyl]piperidine-3-carboxylic acid (Table 3: 40 nM, 120 h); negative=synergistic, positive=antagonistic
Outline: as §1

[8] = system: SKOV3; conditions: SKOV3 (ovary); concentration series of the labelled inhibitor + fixed concentration of IMT (3S)-1-[(2R)-2-[4-(2-chloro-4-fluoro-phenyl)-2-oxo-chromen-7-yl]oxypropanoyl]piperidine-3-carboxylic acid (Table 3: 40 nM, 120 h); negative=synergistic, positive=antagonistic
Outline: as §1

[9] = system: HCT15; conditions: HCT15 (colon); concentration series of the labelled inhibitor + fixed concentration of IMT (3S)-1-[(2R)-2-[4-(2-chloro-4-fluoro-phenyl)-2-oxo-chromen-7-yl]oxypropanoyl]piperidine-3-carboxylic acid (Table 3: 40 nM, 120 h); negative=synergistic, positive=antagonistic
Outline: as §1

[10] = system: JAR; conditions: JAR (placenta); concentration series of the labelled inhibitor + fixed concentration of IMT (3S)-1-[(2R)-2-[4-(2-chloro-4-fluoro-phenyl)-2-oxo-chromen-7-yl]oxypropanoyl]piperidine-3-carboxylic acid (Table 3: 40 nM, 120 h); negative=synergistic, positive=antagonistic
Outline: as §1

[11] = system: SKMEL5; conditions: SKMEL5 (skin); concentration series of the labelled inhibitor + fixed concentration of IMT (3S)-1-[(2R)-2-[4-(2-chloro-4-fluoro-phenyl)-2-oxo-chromen-7-yl]oxypropanoyl]piperidine-3-carboxylic acid (Table 3: 40 nM, 120 h); negative=synergistic, positive=antagonistic
Outline: as §1

[12] = system: NCIH460; conditions: NCIH460 (lung); concentration series of the labelled inhibitor + fixed concentration of IMT (3S)-1-[(2R)-2-[4-(2-chloro-4-fluoro-phenyl)-2-oxo-chromen-7-yl]oxypropanoyl]piperidine-3-carboxylic acid (Table 3: 40 nM, 120 h); negative=synergistic, positive=antagonistic
Outline: as §1

[13] = system: HT29; conditions: HT29 (colon); concentration series of the labelled inhibitor + fixed concentration of IMT (3S)-1-[(2R)-2-[4-(2-chloro-4-fluoro-phenyl)-2-oxo-chromen-7-yl]oxypropanoyl]piperidine-3-carboxylic acid (Table 3: 40 nM, 120 h); negative=synergistic, positive=antagonistic
Outline: as §1

[14] = system: HELA; conditions: HELA (cervix); concentration series of the labelled inhibitor + fixed concentration of IMT (3S)-1-[(2R)-2-[4-(2-chloro-4-fluoro-phenyl)-2-oxo-chromen-7-yl]oxypropanoyl]piperidine-3-carboxylic acid (Table 3: 40 nM, 120 h); negative=synergistic, positive=antagonistic
Outline: as §1

[15] = system: BXPC3; conditions: BXPC3 (pancreas); concentration series of the labelled inhibitor + fixed concentration of IMT (3S)-1-[(2R)-2-[4-(2-chloro-4-fluoro-phenyl)-2-oxo-chromen-7-yl]oxypropanoyl]piperidine-3-carboxylic acid (Table 3: 40 nM, 120 h); negative=synergistic, positive=antagonistic
Outline: as §1

Structure (SMILES)	difference between the calculated combinatorial index (BLISS) and the observed combinatorial effect [1]	difference between the calculated combinatorial index (BLISS) and the observed combinatorial effect [2]	difference between the calculated combinatorial index (BLISS) and the observed combinatorial effect [3]	difference between the calculated combinatorial index (BLISS) and the observed combinatorial effect [4]	difference between the calculated combinatorial index (BLISS) and the observed combinatorial effect [5]	difference between the calculated combinatorial index (BLISS) and the observed combinatorial effect [6]	difference between the calculated combinatorial index (BLISS) and the observed combinatorial effect [7]	difference between the calculated combinatorial index (BLISS) and the observed combinatorial effect [8]	difference between the calculated combinatorial index (BLISS) and the observed combinatorial effect [9]	difference between the calculated combinatorial index (BLISS) and the observed combinatorial effect [10]	difference between the calculated combinatorial index (BLISS) and the observed combinatorial effect [11]	difference between the calculated combinatorial index (BLISS) and the observed combinatorial effect [12]	difference between the calculated combinatorial index (BLISS) and the observed combinatorial effect [13]	difference between the calculated combinatorial index (BLISS) and the observed combinatorial effect [14]	difference between the calculated combinatorial index (BLISS) and the observed combinatorial effect [15]
COc1c(OCCCN2CCOCC2)ccc2c1N=C(NC(=O)c1cnc(N)nc1)N1CCN=C21 [BAY 80-6946, 2-Amino-N-{7-methoxy-8-[3-(4-morpholinyl)propoxy]-2,3-dihydroimidazo[1,2-c]quinazolin-5-yl}-5-pyrimidinecarboxamide]	−0.0068	−0.0651	−0.0627	−0.0178	0.0631	0.0259	−0.0195	0.0112	0.1444	0.0381	−0.0994	−0.0473	0.0613	−0.0260	−0.0082
CS(=O)(=O)N1CCN(Cc2cc3nc(-c4cccc5[nH]ncc45)nc(N4CCOCC4)c3s2)CC1 [GDC-0941, 2-(1H-Indazol-4-yl)-6-[[4-(methylsulfonyl)-1-piperazinyl]methyl]-4-(4-morpholinyl)thieno[3,2-d]pyrimidine]	−0.0330	0.0303	0.0172	−0.0539	0.0647	0.0099	−0.0464	0.0556	0.0270	0.0136	−0.0915	−0.0178	0.1027	−0.0531	0.0704
CC(C)Nc1cc(-c2c[nH]c(C(=O)N[C@H](CO)c3cccc(Cl)c3)c2)c(Cl)cn1 [Ulixertinib]	0.0022	0.0256	−0.0011	0.0039	0.0393	0.0876	−0.0066	0.0284	−0.0215	0.0116	−0.0542	0.0088	0.0702	−0.0117	0.0946
CC(=O)Nc1cccc(-n2c(=O)n(C3CC3)c(=O)c3c(Nc4ccc(I)cc4F)n(C)c(=O)c(C)c32)c1 [Trametinib]	0.0296	0.0028	0.0288	−0.0287	−0.0185	0.0225	−0.0027	−0.0444	0.0677	0.0230	0.0072	0.0180	0.0338	−0.0064	0.0889
